In paper PMC5267425, “Identification of small molecule modulators of HIV-1 Tat and Rev protein accumulation” (Retrovirology, 2017):

Tested on: HeLa rtTA HIV∆Mls cells
Test: Trypan blue exclusion, HeLa
Type: cell-based
Conditions: up to 10 µM
Protocol: Effects of compound treatment on cellular metabolism was assessed by an XTT-based in vitro toxicology assay kit (Sigma-Aldrich) or Trypan blue exclusion (Life Technologies) as proxy for degree of cytotoxicity and expressed relative to DMSO control treatment. For measurement of cell viability using XTT, culture media was removed after 24, 72, and 96 h of compound treatment, replaced with 20% XTT solution and incubated at 37 °C in a 5% CO2 humidified incubator for 2–6 h, and relative cell viability was measured in compound treated cells relative to DMSO-treated cells. Cell viability measurements in CEM-GXR cells are described above.

Q: For `O=C(NC(=S)NNC(=O)c1ccccc1O)c1ccc(-c2ccccc2)cc1` [Compound 833, N-([2-(2-hydroxybenzoyl)hydrazino]carbonothioyl}-4-biphenylcarboxamide], which Trypan blue exclusion is on record?
A: no change
